Our source for the IC50 values is the COVID Moonshot data (paper PMC7615835).

The structures appear in SMILES notation. “And” between values parts separate entries of the source, which are not always exact repeats. Identical values can stand only once. A value given as a limit tells only on which side of the number the result lay.

For the test, the target named is SARS-CoV-2 Main Protease (SARS-CoV-2) (UniProt P0DTD1).
As to `COc1ccc(NC(=O)[C@@H]2CN(C(=O)CCl)CCN2S(=O)(=O)c2ccsc2)cc1` (stereo in doubt), the IC50 (commonly the point on the concentration scale where inhibition reaches its midpoint) worked out at 0.45 µM.

The molecule `COc1ccc2c(NC(=O)Cc3cccc(Cl)c3)cncc2c1` returned a half-inhibitory concentration (IC50) of 8.63 µM.

For the molecule `CSC1=C(C#N)C2(CCCCC2)C(C#N)=C(NC(=O)CCl)N1`, the IC50 is 0.745 µM and 1.75 µM. Next, `Cc1ccncc1NC(=O)Cc1cc(Cl)cc(/C=C(/c2ccccc2)C(F)(F)F)c1`: 22.8 µM; `COc1ccc(-c2ccsc2S(=O)(=O)N2CCN(C(=O)CCl)CC2)cc1`: 1.05 µM.

In the case of `CC(C)(C)c1ccc(N(C(=O)c2ccco2)C(C(=O)NCCc2cccc(F)c2)c2coc3ccccc23)cc1` (stereo unspecified), the IC50 is more than 99.5 µM. Next, `O=C(Cc1cc(Cl)cc(NCc2c(Cl)cccc2Cl)c1)Nc1cncc2ccccc12`: 2.71 µM. The result for `CCOC(=O)c1cc(-c2cc(Cl)cc(CC(=O)Nc3cnccc3C)c2)n[nH]1` reads more than 99.5 µM; that for `O=C(Cc1c[nH]c2cc(Cl)ccc12)Nc1cccc2[nH]c(=O)[nH]c12`, more than 99.5 µM. The result for `C=CC(=O)N(c1ccc(C(F)(F)F)cc1)C(C(=O)NCCc1cccc(F)c1)c1cncc(C#N)c1` (stereo unspecified) reads 11.1 µM; that for `COc1ccccc1CN(C(=O)c1cocn1)C(C(=O)NCCc1cccc(F)c1)c1cccnc1` (stereo unspecified), more than 99.5 µM; that for `COc1ccncc1NC(=O)Cc1cccc(Cl)c1`, 21.6 µM. The molecule `O=C(Cc1cccc(Cl)c1)Nc1n[nH]c2ccccc12` gave an IC50 of more than 99.5 µM. Next, `CC(C)(C)c1ccc(N(C(=O)c2ccc(=O)[nH]n2)C(C(=O)NCCc2cccc(F)c2)c2cccnc2)cc1` (stereo unspecified): more than 99.5 µM; `CS(=O)(=O)c1ccc(N(C(=O)c2cocn2)C(C(=O)NCCc2cccc(F)c2)c2cccnc2)cc1` (stereo unspecified): 75.9 µM. For the molecule `Cn1c(NC(=O)Cc2csc3nccn23)nc2ccc(F)cc21`, the concentration for half-maximal inhibition (IC50) was more than 99.5 µM.

Molecule `O=C(Cc1cc(Cl)cc(Nc2cc(Br)cc(C(F)(F)F)c2)c1)Nc1cncc2ccccc12` registered an IC50 of 1.87 µM. Next, `O=C(Cc1cc(Cl)cc(Nc2ccc3nccnc3c2Br)c1)Nc1cncc2ccccc12`: 1.97 µM. The result for `Cc1ccc(S(=O)(=O)N2CCN(C(=O)c3cc(=O)[nH]c4cc(F)ccc34)CC2)c(C)c1` reads more than 99.5 µM. Next, `CN(C)CC1(C(=O)Nc2cncc3ccccc23)CCOc2ccc(Cl)cc21` (stereo unspecified): 11.5 µM. With `CS(=O)(=O)Cc1ccc(N(C(=O)c2cocn2)C(C(=O)NCCc2cccc(F)c2)c2cccnc2)cc1` (stereo unspecified), the IC50 came to 27.7 µM. The result for `O=C(Nc1cncc2[nH]c(=O)[nH]c12)C1CCOc2ccc(Cl)cc21` (stereo unspecified) reads 62.8 µM.

For `O=C(Nc1cncc2ccccc12)C1CCCc2ccc(Cl)cc21` (stereo unspecified), the IC50 came to 0.324 µM. Next, `O=C(NCCc1cccc(F)c1)C(c1cccnc1)N(C(=O)c1cocn1)C1CCCCCC1` (stereo unspecified): more than 99.5 µM. The result for `Clc1cccc2c1OCCC2Nc1ncccn1` (stereo unspecified) reads more than 99.5 µM; that for `O=C(Nc1cccnc1)c1cc(Cl)ccc1-c1ccccc1`, 39.1 µM; that for `CC(C)(C)c1ccc(N(C(=O)c2cc(=O)c3c(O)cccc3o2)C(C(=O)NCCc2cccc(F)c2)c2cccnc2)cc1` (stereo unspecified), more than 99.5 µM.

`CC(C)n1nccc1C(=O)N1Cc2ccc(Cl)cc2C2(CCN(c3cncc4ccccc34)C2=O)C1` (stereo unspecified): the IC50 was 0.268 µM. Next, `O=C1N(c2cncc3ccccc23)CCC12CN(S(=O)(=O)CC1(C(F)(F)F)CC1)Cc1ccc(Cl)cc12` (stereo unspecified): 0.157 µM; `N#CC1(CS(=O)(=O)N2Cc3ccc(Cl)cc3C(C(=O)Nc3nncn3C3CC3)C2)CC1` (stereo unspecified): 55.3 µM; `CNC(=O)CN1CC(C(=O)Nc2cncc3cc(NS(C)(=O)=O)ccc23)c2cc(Cl)ccc2C1=O` (stereo unspecified): < 0.05 µM and 0.0442 µM. Next, `COC(=O)c1cc(/C=c2\s/c(=C(/C#N)C(=O)NC(C)C)n(-c3ccc(OC)c(F)c3)c2=O)oc1C`: more than 99.5 µM; `Cc1ccc2cccc(Nc3cc(Cl)cc(CC(=O)Nc4cncc5ccccc45)c3)c2n1`: 4.93 µM; `O=C(Cc1cccc(Cl)c1)Nc1c[nH]c2ccccc12`: more than 99.5 µM. For the molecule `O=C(CCl)N1CCN(S(=O)(=O)c2ccsc2)[C@H](C(=O)N2CCOCC2)C1` (stereo in doubt), the half-maximal inhibitory concentration (IC50) is 2.88 µM. With `O=C(c1cccc(N2CCCNC2=O)c1)N1CCC(C2CCNC2)CC1` (stereo unspecified), the IC50 is more than 99.5 µM. Next, `O=C(Cc1cc(Cl)cc(Nc2cccnc2Br)c1)Nc1cncc2ccccc12`: 2.08 µM; `O=C(Cc1cc(Cl)cc(Nc2cccc(Cl)c2Br)c1)Nc1cncc2ccccc12`: 1.94 µM; `CC(C)(C)c1ccc(N(C(=O)c2cocn2)C(C(=O)NCCc2cccc(F)c2)c2ccnnc2)cc1` (stereo unspecified): 2.05 µM. Next, `C[C@H](C(=O)Nc1cncnc1)c1ccccc1` (stereo in doubt): more than 99.5 µM; `CCc1ccc2c(c1)C(=O)C(=O)N2CC(=O)O`: more than 99.5 µM.

In turn, `O=C(Cc1cccc(Cl)c1)Nc1cncc2c1CCCC2` gave an IC50 of more than 99.5 µM. The result for `CC(C)(C)c1cc(Nc2cc(Cl)cc(CC(=O)Nc3cncc4ccccc34)c2)n(-c2ccccc2)n1` reads 2.04 µM; that for `O=C(Cc1cc(Cl)cc(Cc2ccn[nH]2)c1)Nc1cncc2ccccc12`, 5.04 µM; that for `Cn1nncc1C(=O)N(c1ccc(C(C)(C)C)cc1)C(C(=O)NCCc1cccc(F)c1)c1cccnc1` (stereo unspecified), more than 99.5 µM. The result for `C[C@]1(C(=O)Nc2cncc3c2CCCC3)CNS(=O)(=O)c2ccc(Cl)cc21` (stereo in doubt) reads 0.214 µM; that for `O=C(Nc1cncc2cc(Cl)ccc12)C12CC(C1)Oc1ccc(Cl)cc12`, more than 99.5 µM. Consider `O=C(NCCc1cccc(F)c1)C(c1cccnc1)N(C(=O)c1cocn1)c1ccc(S(=O)(=O)C2CCCC2)cc1` (stereo unspecified), for which the IC50 is more than 99.5 µM. The result for `CN(C)c1ccc(N(Cc2ccccc2)C(=O)Cn2nnc3ccccc32)cc1` reads 5.05 µM.

With `CC(C)Cn1cc(NC(=O)NCc2ccco2)c2ccccc2c1=O`, the half-inhibitory concentration (IC50) was determined as 29.6 µM. Molecule `CC1(C(=O)Nc2cncc3ccc(F)cc23)CNS(=O)(=O)c2ccc(Cl)cc21` (stereo unspecified) gave an IC50 of 0.441 µM.

`CN(C)C(=O)CNC(=O)C(c1cccnc1)N(C(=O)c1ccco1)c1ccc(C(C)(C)C)cc1` (stereo unspecified) gave an IC50 of 10.9 µM. Next, `N#Cc1nccn1CCc1cccc(Cl)c1`: more than 99.5 µM. Next, `O=C(Nc1cc(=O)[nH]c2ccccc12)C1CCOc2ccc(Cl)cc21` (stereo unspecified): more than 99.5 µM. Next, `O=C(NCCc1cccc(F)c1)C(c1cccnc1)N(C(=O)c1cnc[nH]1)c1ccc2ncsc2c1` (stereo unspecified): more than 99 µM. Regarding `O=C(NCCc1cccc(F)c1)C(c1cccnc1)N(C(=O)c1cocn1)C1CCN(c2ccccc2F)C1` (stereo unspecified), the IC50 is more than 99.5 µM. The result for `O=C(Cc1cc(Cl)cc(NCc2cc(F)c(F)c(F)c2)c1)Nc1cncc2ccccc12` reads 3.4 µM; that for `COc1ccc(N(Cc2cccc(Cl)c2)C(=O)Cn2nnc3ccccc32)cc1`, 1.14 µM. The result for `C#CCCCC(=O)N[C@H](C(=O)N[C@H](CC(C)C)C(=O)NN(CCC(N)=O)C(=O)C1OC1C(=O)OCC)C(C)(C)C` (stereo in doubt) reads 0.292 µM and 0.206 µM; that for `CN(C)C(=O)CNC(=O)C(c1cccnc1)N(C(=O)c1cocn1)c1ccc(C(C)(C)C)cc1` (stereo unspecified), 29.2 µM; that for `Cn1cnc2cc(N(C(=O)c3cocn3)C(C(=O)NCCc3cccc(F)c3)c3cccnc3)ccc21` (stereo unspecified), more than 99.5 µM. Take `CNC(=O)CN1Cc2ccc(Cl)cc2C(C(=O)Nc2cncc3cc(COC)ccc23)C1` (stereo unspecified): the IC50 was 0.119 µM. The result for `O=C(NCc1ccccc1)[C@@H]1CN(C(=O)CCl)CCN1S(=O)(=O)c1ccsc1` (stereo in doubt) reads 0.501 µM; that for `Cc1cccc2nc(NC3CCN(c4ccc5nncn5n4)C3)sc12` (stereo unspecified), more than 99.5 µM. Next, `O=C(Cc1cc(Cl)cc(Nc2ccc(Oc3ccc(Cl)cc3)cc2)c1)Nc1cncc2ccccc12`: 2.44 µM; `COc1ccc(NC(=O)C(c2cccnc2)N(C(=O)c2cocn2)c2ccc(C(C)(C)C)cc2)cn1` (stereo unspecified): 5.37 µM; `O=C(NCCc1cccc(F)c1)C(c1cccnc1)N(C(=O)c1cocn1)c1ccc(C(F)(F)F)nc1` (stereo unspecified): 36.4 µM. The result for `CCS(=O)(=O)Nc1ccc2cncc(NC(=O)Cc3cccc(Cl)c3)c2c1` reads 1.02 µM; that for `O=S(=O)(Nc1ccccc1SCc1cccc(Cl)c1F)c1cc(Cl)sc1Cl`, 2.23 µM; that for `CC(C)(C)c1ccc(N(C(=O)c2cocn2)C(C(=O)NCc2ccncc2)c2cccnc2)cc1` (stereo unspecified), more than 99.5 µM. Take `Nc1nn(C(=O)C2CCOc3ccc(Cl)cc32)c2cc(F)ccc12` (stereo unspecified): the IC50 was more than 99.5 µM. As to `O=C(NCc1ccc2c(c1)OCO2)c1nc(S(=O)(=O)Cc2ccccc2)ncc1Cl`, the IC50 was 1.4 µM. For the molecule `Cc1ccc2nnc(CNc3ccc4nnc(C(F)(F)F)n4n3)n2c1`, the IC50 is more than 99.5 µM. The result for `O=C(Cn1nnc2ccccc21)N(Cc1ccccn1)c1cnc(-c2ccccc2)nc1` reads more than 99.5 µM.

Molecule `N#CCC1(CS(=O)(=O)N2Cc3ccc(Cl)cc3C3(CCN(c4cncc5ccccc45)C3=O)C2)CC1` (stereo unspecified) registered an IC50 of 0.337 µM. Next, `O=C1C(=O)N(Cc2ccc(Br)cc2)c2ccccc21`: more than 198 µM; `CN(C)C(=O)CN1CCc2ccc(Cl)cc2C1C(=O)Nc1cncc2ccccc12` (stereo unspecified): 1.54 µM. The result for `CCC(C)c1ccc(C(NCC(=O)Nc2ccc3[nH]c(=O)[nH]c3c2)c2cccs2)cc1` (stereo unspecified) reads more than 99.5 µM; that for `O=C(NCc1ccc2[nH]c(=O)[nH]c2c1)Nc1ccc(F)c(F)c1`, more than 99.5 µM. Next, `Cn1c(=O)c2cc(C(=O)N(c3ccc(C(C)(C)C)cc3)C(C(=O)NCCc3cccc(F)c3)c3cccnc3)n(C)c2n(C)c1=O` (stereo unspecified): more than 99.5 µM. `CC1(CS(=O)(=O)N2Cc3ccc(Cl)cc3C(C(=O)Nc3cncc4ccccc34)C2)CC1` (stereo unspecified) returned an IC50 of 0.098 µM.

For `O=C(Cc1cc(Cl)cc(N2CCn3c(nnc3C(F)(F)F)C2)c1)Nc1cncc2ccccc12`, the IC50 was 2.01 µM. The result for `CCOc1ccc(N(C(=O)c2cnc[nH]2)C(C(=O)NCCc2cccc(F)c2)c2cccnc2)cn1` (stereo unspecified) reads more than 99 µM. The molecule `CNC(=O)CN1Cc2ccc(Cl)cc2[C@@]2(CCN(c3cncc4c3CCCC4)C2=O)C1` (stereo in doubt) registered an IC50 of 0.235 µM.

Turning to `CN(C)C(=O)c1cc2c(NC(=O)C3CCOc4ccc(Cl)cc43)cncc2s1` (stereo unspecified), the IC50 came out at 0.399 µM. The result for `Cc1ccncc1NC(=O)N(Cc1ccccc1)c1cccc(Cl)c1` reads 22.9 µM.
